Data on one compound can be found in patent publication US20070135515A1, “Method for producing sorbicillactone a” (priority 2004, published 2007).

In series [1] the test system is L5178Y-mouse lymphoma cells (ATCC CRL 1722). Description: Apoptosis detection (Cell Death Detection ELISA plus). The format is cell-based. Particulars: for MW ± SD (OD) / % of the control (negative): 4 hours incubation; for MW ± SD (OD): 405 nm; for % of the control (negative): negative control = 100%. How it is done: Material: RPMI1640-medium, Hepes buffered, was obtained from Sigma-Aldrich (Taufkirchen, Germany), foetal calf serum (FCS) from Gibco (Karlsruhe, Germany), and Cell Death Detection ELISA plus from Roche (Mannheim, Germany, Cat. No. 1774425). Sorbicillactone A of the batch: 2208/2a was used.
Incubation and preparation of the cells: The L5178Y-mouse lymphoma cells (ATCC CRL 1722)) were counted, and adjusted to a number of cells of 10^4 cells/mL. The sorbicillactone-A- and dihydrosorbicillactone-A-stock solution (10 mg/mL in DMSO) was diluted with medium (RPMI/Hepes with 10% FCS) to concentrations of 60, 20, and 6 μg/mL. In a 96-well-culture plate, 100 μl cell suspension (˜10^3 cells) were each pipetted to each of the 100 μl of the different dihydrosorbicillactone-A- and sorbicillactone-A-solutions. RPMI1640-medium without dihydrosorbicillactone and sorbicillactone A was used as a negative control. The final concentrations were 30, 10, and 3 μg/mL sorbicillactone A and dihydrosorbicillactone A. Four parallel settings of each sample were analysed. The cells were incubated for 4 hours at 37° C. After the incubation, the culture plate was centrifuged at […] (˜1200 rpm) for 10 min at room temperature. The supernatant was carefully pipetted off, and the cells were each overlayered with 200 μl lysis-buffer (Roche-Kit). Then, the cells were lysed for 30 min at room temperature. After the lysis, the culture plate was again centrifuged at 200×g (˜1200 rpm) for 10 min at room temperature.
ELISA: Two strips with eight wells each were taken from the streptavidin-ELISA-plate of the Roche-kit. 20 μl of the supernatant of a cell-lysis (see above) were added into each well. In doing so, the samples with 30 or 10 μg/mL of sorbicillactone A and dihydrosorbicillactone A were loaded as 4-fold, and all other as duplicate determinations. In addition to these sample, a positive control (DNA-histone-complex) was loaded. Then, 80 μl of immune reagent were added into each well. This solution consisted of incubation buffer, anti-histone-biotin, and anti-DNA-peroxidase. The incubation buffer was used as a blank value. The ELISA-plate was incubated for 2 hours in a shaking incubator at room temperature. Them the supernatants were carefully removed, and the wells were each washed 3× with 250 μl of the incubation buffer. After the washing, 100 μl of ABTS-solution were added into each “well”. Subsequently, the cells were incubated for 30 min in the dark at room temperature. The measurement took place in a multiscan at an emission wavelength of 405 nm.
(In general: An ELISA detects its analyte on a solid surface through an enzyme-linked reagent.)

Series [2] deals with L5178Y mouse-lymphoma cells (ATCC CRL 1722). Description: Genotoxicity: Fast Microassay (strand scission factors, PicoGreen). The format is cell-based. How it is done: Material: PicoGreen was obtained from Molecular Probes (Leiden, The Netherlands), RPMI1640-medium from Sigma-Aldrich (Taufkirchen, Germany), foetal calf serum (FKS) from Gibco (Karlsruhe, Germany), and black microtitre-plates (96-well-plates) from Nunc (Wiesbaden, Germany). Sorbicillactone A of the batch: 2208/2a was used.
Cells: The genotoxicity of sorbicillactone A was tested on L5178Y mouse-lymphoma cells (ATCC CRL 1722). As described (Müller et al., 1979, Cancer Res. 39:1102-1107), the cells were cultured in RPMI1640-medium supplemented with 10% foetal calf serum (FCS). 10^4 cells/mL were chosen as the inoculum concentration. The cells were incubated for 4 and 24 hours with 1, 3, 10, and 30 μg/mL of sorbicillactone A (1). Following the incubation, the cells were examined with the “Fast Microassay”.
“Fast Microassay”: The method was performed according to a modified method (Batel et al., 1999, Anal. Biochem., 270:195-200). The cells were washed with 1×PBS for two times. After centrifugation, the pellet was taken up in 1×PBS and diluted to […]. 25 μl each of the cell suspension (about 2.5×10^4 cells per well) were pre-pipetted into black microtitre-plates (96-well-plates, Nunc, Wiesbaden). 25 μl 1×PBS were in the controls. Then, 25 μl of lysis solution (7 M urea, 0.1% (w/v) SDS, 0.2 M EDTA, pH=10.0) with PicoGreen (20 μl conc. PicoGreen per 1 mL of lysis solution) were pipetted into the microtitre-plate. Subsequently, the cells were lysed for 40 min in the dark at room temperature. After the incubation, the denaturation (unwinding) of the DNA occurs by the addition of freshly prepared alkaline solution. This is produced in that 20 mL 20 mM of EDTA, and 32 mL of 20 mM EDTA/100 mM NaOH are adjusted to a pH-value of 12.3. The measurement took place immediately in a fluoroscan at an excitation wavelength of 485 nm, and an emission wavelength of 520 nm, every 3 to 5 min, 20 min in total. The results were given as “strand scission factors” (SSF), and calculated following a time of denaturation (time of unwinding) of 20 min according to the following equation: SSF=log (% dsDNA-sample/% dsDNA-control).

Take `C/C=C/C=C/C(O)=C1/C(=O)C(C)=C(O)[C@@]2(C)OC(=O)[C@@](C)(NC(=O)/C=C/C(=O)O)[C@@H]12` [sorbicillactone A]: the entries for the “MW ± SD (OD)” value in series [1] (3 μg/mL), in series [1] (10 μg/mL) and in series [1] (30 μg/mL) were 0.062 ± 0.004 OD, 0.193 ± 0.010 OD and 0.219 ± 0.024 OD, respectively. Besides, the “% of the control (negative)” value in series [1] (3 μg/mL) came to 91.2%; in series [1] (10 μg/mL), 283.8%; in series [1] (30 μg/mL) it was 322.1%. For the same compound, the increase of apoptosis-cells result in series [1] (3 μg/mL, 4 hours of incubation) is “did not result in an increase of apoptosis-cells”. In addition, in series [1] (10 and 30 μg/mL, 4 hours of incubation), the induction of apoptosis result is reported as “induces apoptosis”. For the same compound, the “induction of DNA-strand scissions” value in series [2] (30 μg/mL, 24 hours of incubation) is recorded as “induced DNA-strand scissions”. Moreover, the “effect on the SSF-values (strand scission factors)” value in series [2] (1, 3, 10, and 30 μg/mL, 4 hours of incubation, FIG. 3A) was “nearly no effect”. Moreover, the “increase of the SSF-values” in series [2] (1 to 10 μg/mL, 24 hours) is reported as “slight, but no significant, increase”. Besides, the “increase of the SSF-values (portion of DNA-strand scissions)” value in series [2] (3 and 30 μg/mL, 24 hours, p<0.001, FIG. 3B) is given as “significant increase”.
